Consider seven molecules from ChEMBL document CHEMBL5316372, “NMR Fingerprints of Formyl Phloroglucinol Meroterpenoids and Their Application to the Investigation of Eucalyptus gittinsii subsp. gittinsii” (J Nat Prod, 2023).

Data set [1] has as its system Plasmodium falciparum. As to the kind of experiment: Antiplasmodial activity against Plasmodium falciparum 3D7 incubated for 72 hrs by DAPI staining based analysis. The conditions noted are these: 3D7, 72 h. It is filed as functional, organism-based.
Data set [2] in a line: Cytotoxicity against HEK293 cells assessed as inhibition of cell growth at 5 uM incubated for 72 hrs by resazurin based fluorescence plate reader analysis relative to control. The format is toxicity. Particulars: human.
Data set [3] relates to Staphylococcus aureus. The experiment in a line: Antibacterial activity against Methicillin-resistant Staphylococcus aureus ATCC 43300 incubated for 18 hrs by Luria-Bertani broth based plate reader analysis. It is filed as functional.
Data set [4] has as its system Staphylococcus aureus. The experiment in a line: Antibacterial activity against Methicillin-sensitive Staphylococcus aureus ATCC 25923 incubated for 18 hrs by Luria-Bertani broth based plate reader analysis. The format is functional.
Data set [5] relates to HEK293. As to the kind of experiment: Cytotoxicity against HEK293 cells assessed as reduction in cell viability at 40 uM incubated for 72 hrs by resazurin based fluorescence plate reader analysis. The format is toxicity. Particulars: human, hek293, 72 h. (In general: Resazurin is reduced to fluorescent resorufin, in cell work by metabolically active cells.)
Data set [6] relates to HEK293. As to the kind of experiment: Cytotoxicity against HEK293 cells assessed as reduction in cell viability at 2.5 uM incubated for 72 hrs by resazurin based fluorescence plate reader analysis. It is filed as toxicity. The conditions noted are these: human, hek293, 72 h.
Data set [7] can be described thus: Cytotoxicity against HEK293 cells assessed as inhibition of cell growth at 40 uM incubated for 72 hrs by resazurin based fluorescence plate reader analysis relative to control. The format is toxicity. Particulars: human.

As a reminder, the IC50 is the point on the concentration scale where inhibition reaches its midpoint. A high value points to weaker potency in that assay. For orientation: inhibition means the relative decrease from the control value, in per cent. One may read the MIC50 as the lowest concentration that inhibits either 50% of growth or 50% of the strains tested, depending on the study.

The structures appear in SMILES notation. In brackets after ≈: the same amount, converted by molar mass.

Regarding `COc1ccc(C[C@H](N)C(=O)N[C@H]2[C@@H](O)[C@H](n3cnc4c(N(C)C)ncnc43)O[C@@H]2CO)cc1` [PUROMYCIN], the IC50 in data set [1] came out at 80 nM. In addition, the inhibition at 72 h, 5 µM in data set [2] came to 0.89%.
As to `C/C1=C\[C@@H]2[C@H](CC[C@@]3(C)Oc4c(c(O)c(C=O)c(O)c4C(=O)CC(C)C)C[C@@H]3CC1)C2(C)C`, the MIC50 in data set [3] and in data set [4] was 75 µM (≈ 34.1 µg/mL) in each case. Besides, the IC50 in data set [1] turned out to be 15700 nM. Also, the Activity result in data set [5] is recorded as “Non-Toxic”.
For the molecule `C/C1=C\[C@H]2[C@@H](CC[C@]3(C)Oc4c(C=O)c(O)c(C(=O)CC(C)C)c(O)c4C[C@H]3CC1)C2(C)C`, the MIC50 in data set [3] and in data set [4] was greater than 75 µM in each case. Also, half-maximal inhibition in data set [1] (IC50) required 23600 nM. Besides, the Activity entry in data set [5] was “Non-Toxic”.
With `C[C@H]1[C@H](OC(=O)CCC(=O)O)O[C@@H]2O[C@@]3(C)CC[C@H]4[C@H](C)CC[C@@H]1[C@@]24OO3` [ARTESUNATE], the IC50 in data set [1] turned out to be 3 nM. In addition, the Activity result in data set [6] was “Non-Toxic”.
With `C=C(C)[C@@H]1C=C2[C@@H](C)CC[C@@H](Cc3c(O)c(C=O)c(O)c(C(=O)CC(C)C)c3O)[C@]2(C)CC1`, the MIC50 in data set [3] and in data set [4] was 4.7 µM (≈ 2.14 µg/mL) each time. This molecule also displayed an IC50 in data set [1] of 1300 nM. Moreover, the inhibition at 72 h, 40 µM in data set [7] is greater than 85%.
For the molecule `CC(=O)O[C@H]1C[C@@]2(C)[C@@H](C[C@@H](O)[C@H]3[C@@]4(C)CC[C@@H](O)[C@@H](C)[C@@H]4CC[C@@]32C)/C1=C(\CCC=C(C)C)C(=O)O` [FUSIDIC ACID], the MIC50 in data set [3] and in data set [4] was less than 0.12 µM each time.
`CCc1nc(N)nc(N)c1-c1ccc(Cl)cc1` [PYRIMETHAMINE]: in data set [1], the IC50 was 20 nM. Further, in data set [7], the inhibition at 72 h, 40 µM turned out to be 33.4%.
